Data published in doi:10.1101/2024.04.10.588849v1 (biorxiv, 2024).

Target: T1, recombinant human MPST (3-mercaptopyruvate sulfurtransferase) (Homo sapiens, UniProt P25325)
T1 sequence (P25325 1-317 isoform P25325-2): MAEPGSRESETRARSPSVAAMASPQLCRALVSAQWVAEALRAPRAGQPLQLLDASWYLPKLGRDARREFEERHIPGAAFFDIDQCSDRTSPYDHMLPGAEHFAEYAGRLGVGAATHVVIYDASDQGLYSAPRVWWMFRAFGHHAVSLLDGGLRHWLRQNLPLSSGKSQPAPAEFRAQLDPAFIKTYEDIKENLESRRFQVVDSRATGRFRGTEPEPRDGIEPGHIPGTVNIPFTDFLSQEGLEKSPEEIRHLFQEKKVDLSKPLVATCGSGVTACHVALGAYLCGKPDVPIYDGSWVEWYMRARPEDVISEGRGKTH
Experiment: isothermal titration calorimetry
Type: binding

Question: How did the Kd turn out when `C[N+](C)(C)[C@@H](Cc1c[nH]c(=S)[nH]1)C(=O)[O-]` [ergothioneine] was run?
Answer: 3.2 µM
